Assay results taken from ChEMBL document CHEMBL1136378, “Novel 6,7-diphenyl-2,3,8,8a-tetrahydro-1H-indolizin-5-one analogues as cytotoxic agents” (Bioorg Med Chem Lett, 2003).

Tests used:
DU-145 = test: In vitro cytotoxic activity tested against human prostate cancer (DU145) cell line; type: functional
NCI/ADR-RES = test: In vitro cytotoxic activity tested against human breast cancer MCF/ADR cell line
[1] = Average growth inhibition against cell lines was calculated; type: functional
U-251 = test: In vitro cytotoxic activity tested against human CNS (U251) cell line; type: functional
SW-620 = test: In vitro cytotoxic activity tested against human colon cancer (SW620) cell line; type: functional
A498 = test: In vitro cytotoxic activity was tested against human renal cancer (A498) cell line; type: functional
M14 = test: In vitro cytotoxic activity was tested against human melanoma cancer (M14) cell line; type: functional
NCI-H522 = test: In vitro cytotoxic activity tested against human lung cancer (H-522) cell line
SK-OV-3 = test: In vitro cytotoxic activity tested against human ovarian cancer (SK-OV3) cell line; type: functional
[2] = Tmax value was determined at a dose of 100 mg/kg (i.p.) in Mice; type: ADME, organism-based; set-up: dose 100 mg/kg, route intraperitoneal; settings: mouse, in vivo, ip
[3] = Cmax value was determined at a dose of 100 mg/kg (i.p.) in Mice; type: ADME, organism-based; set-up: dose 100 mg/kg, route intraperitoneal; settings: mouse, in vivo, ip
[4] = Area under curve was determined at a dose of 100 mg/kg (i.p.) in Mice; type: ADME, organism-based; set-up: dose 100 mg/kg, route intraperitoneal; settings: mouse, in vivo, ip
[5] = Tmax value was determined at a dose of 200 mg/kg (i.p.) in Mice; type: ADME, organism-based; set-up: dose 200 mg/kg, route intraperitoneal; settings: mouse, in vivo, ip
[6] = Half life beta(2,4,6,8h) value was determined at a dose of 200 mg/kg (i.p.) in Mice; type: ADME, organism-based; set-up: dose 200 mg/kg, route intraperitoneal; settings: mouse, in vivo, ip, read-out: T1/2 beta (converted)
[7] = Area under curve was determined at a dose of 200 mg/kg (i.p.) in Mice; type: ADME, organism-based; set-up: dose 200 mg/kg, route intraperitoneal; settings: mouse, in vivo, ip
[8] = Cmax value was determined at a dose of 200 mg/kg (i.p.) in Mice; type: ADME, organism-based; set-up: dose 200 mg/kg, route intraperitoneal; settings: mouse, in vivo, ip

| Tmax [2] | Cmax [3] | AUC [4] | Tmax [5] | half-life [6] | AUC [7] | Cmax [8] | Compound | GI50 (DU-145) | GI50 (NCI/ADR-RES) | GI50 [1] | GI50 (U-251) | GI50 (SW-620) | GI50 (A498) | GI50 (M14) | GI50 (NCI-H522) | GI50 (SK-OV-3) |
| --- | --- | --- | --- | --- | --- | --- | --- | --- | --- | --- | --- | --- | --- | --- | --- | --- |
|  |  |  |  |  |  |  | CSc1ccc(C2=C(c3ccc(C)c(C)c3)C(=O)N3CCCC3C2)cc1 (stereo not drawn) | 500 nM | 0.8 µM | 1700 nM | 10000 nM | 700 nM | 300 nM | 0.8 µM | 300 nM | 0.3 µM |
|  |  |  |  |  |  |  | CSc1ccc(C2=C(c3ccc(OCCN4CCOCC4)cc3)C(=O)N3CCCC3C2)cc1 (stereo not drawn) | 20000 nM | 9 µM | 11500 nM | 9000 nM | 9000 nM | 9000 nM | 20 µM | 7000 nM | 9 µM |
|  |  |  |  |  |  |  | COc1ccc(C2=C(c3ccc(SC)cc3)CC3CCCN3C2=O)cc1O (stereo not drawn) | 6000 nM | 5 µM | 23600 nM | 5000 nM | 20000 nM |  |  | 6000 nM | > 100 µM |
|  |  |  |  |  |  |  | COc1ccc(C2=C(c3ccc(SC)cc3)CC3CCCN3C2=O)cc1 (stereo not drawn) | 900 nM | 5 µM | 2400 nM | 2000 nM | 3000 nM | 800 nM | 4 µM | 800 nM | 3 µM |
|  |  |  |  |  |  |  | CSc1ccc(C2=C(c3ccc(F)c(C)c3)C(=O)N3CCCC3C2)cc1 (stereo not drawn) | 500 nM | 0.5 µM | 1100 nM | 200 nM | 600 nM | 300 nM | 0.8 µM | 500 nM | 0.3 µM |
| 17.4 min | 3.61 µM | 6.92 µM·h |  |  |  |  | CSc1ccc(C2=C(c3ccc(F)c(F)c3)C(=O)N3CCCC3C2)cc1 (stereo not drawn) | 500 nM | 0.8 µM | 2100 nM | 15000 nM | 200 nM | 100 nM | 0.3 µM | 200 nM | 0.1 µM |
|  |  |  |  |  |  |  | COc1ccc(C2=C(c3ccc(OC)c(OC)c3)CN3CCCC3C2)cc1OC (stereo not drawn) | > 100000 nM | > 100 µM | > 100000 nM | > 100000 nM | > 100000 nM | > 100000 nM | > 100 µM | > 100000 nM | > 100 µM |
|  |  |  |  |  |  |  | CSc1ccc(C2=C(c3ccc(OCC4CO4)cc3)C(=O)N3CCCC3C2)cc1 (stereo not drawn) | 500 nM | 10 µM | 2600 nM | 80 nM | 90 nM | 500 nM | 0.09 µM | 30 nM | 10 µM |
|  |  |  | 15 min | 374 min | 38.5 µM·h | 8.02 µM | CSc1ccc(C2=C(c3ccc(C)cc3)C(=O)N3CCCC3C2)cc1 (stereo not drawn) | 600 nM | 0.6 µM | 3000 nM | 400 nM | 3000 nM | 4000 nM | 6 µM | 900 nM | 9 µM |
|  |  |  |  |  |  |  | COc1ccc(C2=C(c3ccc(SC)cc3)CC3CCCN3C2=O)cc1OC(=O)CNC(=O)OC(C)(C)C (stereo not drawn) | 10000 nM | 6 µM | 11500 nM | 6000 nM | 20000 nM |  |  | 7000 nM | 20 µM |
|  |  |  |  |  |  |  | COc1ccc(C2=C(c3ccc(SC)cc3)CC3CCCN3C2=O)cc1OC(=O)C1CCCN1C(=O)OC(C)(C)C (stereo not drawn) | 5000 nM | 4 µM | 6000 nM | 2000 nM | 10000 nM |  |  | 5000 nM | 10 µM |
|  |  |  | 15 min | 437 min | 102 µM·h | 23 µM | COc1ccc(C2=C(c3ccc(SC)cc3)CC3CCCN3C2=O)cc1OC (stereo not drawn) | 1500 nM | 0.6 µM | 3600 nM | 300 nM | 3000 nM | 8000 nM | 5 µM | 2000 nM | 9 µM |
